Our source for the solubility values is US7265106B2, “Method for isolating (R)-tofisopam” (Vela Aquisition Corporation, priority 2003, dated 2007).

Values after ≈ are worked out from the molar mass of the structure shown.

This data set is described as follows: physchem. The note with it: organic solvent or mixture. The format is physicochemical.

With `CCC1C(C)=NN=C(c2ccc(OC)c(OC)c2)c2cc(OC)c(OC)cc21` (racemic) [racemic tofisopam, 1-(3,4-dimethoxyphenyl)-4-methyl-5-ethyl-7,8-dimethoxy-5H-2,3-benzodiazepine], the solubility was around 136 mg/mL (≈ 354 mM).
